Laboratory results reported in ChEMBL document CHEMBL3286274, “Investigation of a novel series of 2-hydroxyisoquinoline-1,3(2H,4H)-diones as human immunodeficiency virus type 1 integrase inhibitors” (J Med Chem, 2014).
Calls of active or inactive are those of the source. No cut-off for these calls is given here.

Experiments:
[1] = Cytotoxicity against human MT4 cells infected with HIV-1 3B assessed as reduction in cell viability by MTT assay; format: cell-based
[2] = in vitro; conditions: human, MT4 cells infected with HIV-1 3B
Description: Therapeutic index, ratio of CC50 for human MT4 cells infected with HIV-1 3B to EC50 for HIV-1 3B infected in human MT4 cells

[3] = tested on: Human immunodeficiency virus 1; test: Antiviral activity against HIV-1 3B infected in human MT4 cells assessed as protection against virus-induced cytopathic effect by MTT assay; format: functional, organism-based; conditions: Human immunodeficiency virus 1, 3B
[4] = biological target: Human immunodeficiency virus type 1 reverse transcriptase (Human immunodeficiency virus 1) (UniProt Q72547); test: Inhibition of recombinant HIV-1 reverse transcriptase-associated RNase H activity using [3H]-labeled RNA as substrate at 10 uM after 10 mins relative to control
[5] = biological target: Human immunodeficiency virus type 1 integrase (Human immunodeficiency virus 1, UniProt Q7ZJM1); test: Inhibition of HIV-1 overall integrase activity using 5'-digoxigenin-labeled GACCCTTTTAGTCAGTGTGGAAAATCTCTAGCAGT-3' as substrate after 1 hr by ELISA
[6] = tested on: Human immunodeficiency virus 1; test: Antiviral activity against HIV-1 3B infected in human MT4 cells assessed as inhibition of p24 antigen production by measuring time delay in loss of compound activity at 50 to 100 times EC50 by ELISA; format: functional
[7] = tested on: Human immunodeficiency virus 1; test: Resistance ratio of EC50 for raltegravir-resistant HIV1 harboring integrase E92Q mutant to EC50 for wild type HIV1; format: functional
[8] = tested on: Human immunodeficiency virus 1; test: Resistance ratio of EC50 for raltegravir-resistant HIV1 harboring integrase G140S/Q148H double mutant to EC50 for wild type HIV1; format: functional
[9] = tested on: Human immunodeficiency virus 1; test: Antiviral activity against HIV-1 3B infected in human MT4 cells assessed as inhibition of p24 antigen production at 50 to 100 times EC50 treated for 1 to 25 hrs measured at 30 hrs by ELISA; format: functional, organism-based
[10] = tested on: Human immunodeficiency virus 1; test: Resistance ratio of EC50 for raltegravir-resistant HIV1 harboring integrase Q148H mutant to EC50 for wild type HIV1; format: functional
[11] = tested on: Human immunodeficiency virus 1; test: Resistance ratio of EC50 for raltegravir-resistant HIV1 harboring integrase N155H mutant to EC50 for wild type HIV1; format: functional
[12] = n-octanol-PBS partition coefficient, log D of the compound at pH 7.4; format: physicochemical
[13] = biological target: Human immunodeficiency virus type 1 reverse transcriptase (Human immunodeficiency virus 1, UniProt Q72547); test: Inhibition of recombinant HIV-1 reverse transcriptase-associated RNase H activity using [3H]-labeled RNA as substrate after 10 mins

SMILES | inhibition [4] [%] | IC50 [5] [µM] | CC50 [1] [µM] | selectivity ratio [2] | EC50 [3] [µM] | also measured
O=C(NCc1ccccc1)c1c(O)n(O)c(=O)c2cc([N+](=O)[O-])ccc12 | 69.1 | 0.01 | 118 | 564 | 0.21 | 
O=C(Nc1ccc(F)cc1)c1c(O)n(O)c(=O)c2cc([N+](=O)[O-])ccc12 |  | 0.03 | 186 | 981 | 0.19 | 
O=C(NCCc1ccc(F)cc1)c1c(O)n(O)c(=O)c2cc([N+](=O)[O-])ccc12 |  | 0.06 | > 250 | > 262 | 0.95 | 
CC(C)c1nc(CN(C)C(=O)N[C@H](C(=O)N[C@@H](Cc2ccccc2)C[C@H](O)[C@H](Cc2ccccc2)NC(=O)OCc2cncs2)C(C)C)cs1 [RITONAVIR] |  |  |  |  |  | Time [6]: 25 h
O=C(NCc1ccc(F)cc1)c1c(O)n(O)c(=O)c2ccccc12 |  |  |  |  |  | Ratio EC50 [7]: 1; Ratio EC50 [8]: 1; inhibition [9]: Active; Ratio EC50 [10]: 1; Ratio EC50 [11]: 1; logD [12]: 0.56
Cc1nnc(C(=O)NC(C)(C)c2nc(C(=O)NCc3ccc(F)cc3)c(O)c(=O)n2C)o1 |  |  | > 8 |  |  | 
COc1ccc(CNC(=O)c2c(O)n(O)c(=O)c3cc([N+](=O)[O-])ccc23)cc1 | 67.2 | 0.01 | > 250 | > 84 | 2.97 | 
CCCCCCNC(=O)c1c(O)n(O)c(=O)c2cc([N+](=O)[O-])ccc12 | 49 | 0.06 | > 250 | > 59 | 4.21 | 
O=C(NCc1ccc(F)cc1)c1c(O)n(O)c(=O)c2cc([N+](=O)[O-])ccc12 | 78.7 | 0.01 |  |  |  | IC50 [13]: 4.8 µM
O=C(NCc1ccc(F)cc1)c1c(O)n(O)c(=O)c2ccc([N+](=O)[O-])cc12 | 48.2 | 0.03 | > 125 | > 463 | 0.27 | 
Cc1cn([C@H]2C[C@H](N=[N+]=[N-])[C@@H](CO)O2)c(=O)[nH]c1=O [ZIDOVUDINE] |  |  |  |  |  | Time [6]: 4 h
O=C(Nc1ccccc1)c1c(O)n(O)c(=O)c2cc([N+](=O)[O-])ccc12 | 60 | 0.01 | 115 | 679 | 0.17 | 

Second part, led by results:

inhibition [4] [%] | IC50 [5] [µM] | SMILES | CC50 [1] [µM] | selectivity ratio [2] | EC50 [3] [µM] | also measured
 | 0.16 | O=C(Nc1ccc2c(c1)C(=O)N(O)C(=O)C2C(=O)NCc1ccc(F)cc1)c1ccccn1 (stereo not drawn) | 1 |  | > 1.2 | 
41.2 | 0.08 | O=C(Nc1ccc2c(c1)C(=O)N(O)C(=O)C2C(=O)NCc1ccc(F)cc1)c1ccccc1 (stereo not drawn) | 21 |  | > 21 | 
15.5 | 0.26 | COc1ccc2c(c1)C(=O)N(O)C(=O)C2C(=O)NCc1ccc(F)cc1 (stereo not drawn) | 21 | 3 | 6.5 | 
25.2 | 0.1 | CC(=O)Nc1ccc2c(c1)C(=O)N(O)C(=O)C2C(=O)NCc1ccc(F)cc1 (stereo not drawn) | 149 | 5 | 29.3 | 
21.9 | 0.24 | O=C(NCc1ccc(F)cc1)C1C(=O)N(O)C(=O)c2cc(F)ccc21 (stereo not drawn) | 116 | 162 | 0.73 | 
24.5 | 0.24 | O=C(NCc1ccc(F)cc1)C1C(=O)N(O)C(=O)c2ccc(F)cc21 (stereo not drawn) | 123 | 39 | 3.16 | 
26.3 | 0.14 | O=C(NCc1ccc(F)cc1)C1C(=O)N(O)C(=O)c2cc(Cl)ccc21 (stereo not drawn) | 106 |  | 4.19 | 
31.6 | 0.88 | O=C(NCc1ccc(F)cc1)C1C(=O)N(O)C(=O)c2c(F)cccc21 (stereo not drawn) | 149 | 33 | 4.46 | 
 | 0.07 | N#Cc1ccc2c(C(=O)NCc3ccc(F)cc3)c(O)n(O)c(=O)c2c1 | > 125 | > 187 | 0.67 | 
38.7 | 0.06 | O=C(NCc1ccc(F)cc1)C1C(=O)N(O)C(=O)c2cc(Br)ccc21 (stereo not drawn) | 99.5 | 33 | 2.99 | 
25.5 | 0.02 | O=C(NCc1ccc(F)cc1)C1C(=O)N(O)C(=O)c2cc(C(F)(F)F)ccc21 (stereo not drawn) | > 56 | > 94 | 0.6 | 
46.4 | 0.23 | O=C(Cc1ccccc1)Nc1ccc2c(c1)C(=O)N(O)C(=O)C2C(=O)NCc1ccc(F)cc1 (stereo not drawn) | 31 |  | > 31 | 
29.4 | 0.11 | Nc1ccc2c(c1)C(=O)N(O)C(=O)C2C(=O)NCc1ccc(F)cc1 (stereo not drawn) | 253 | 10 | 23.3 | 
28.9 | 0.06 | O=C(Cc1cccs1)Nc1ccc2c(c1)C(=O)N(O)C(=O)C2C(=O)NCc1ccc(F)cc1 (stereo not drawn) | 41 |  | > 41 | 
